Results as given in patent US8119696B2, “Treatment of superficial and cutaneous mycoses with a pure form of 1,7-bis(4-hydroxy-3-methoxyphenyl)-3,5-heptanedione” (priority 2007, dated 2012).
Entries after “also recorded” stand apart in the source; their conditions may differ.

How the values were obtained:
Assay type in all cases: cell-based
[1] = test system: Fusarium oxysporum (mycotoxin producing fungus); experiment: Activity against Fusarium oxysporum: counts over 28 days; details: inoculation level 1 × 10^7 CFU/g
Trichophyton rubrum = experiment: Anti-dermatophytic activity, agar dilution method (Sabouraud's dextrose agar); details: for Inhibition of growth at all tested concentrations: concentrations 0.15%, 0.31%, 0.625%, 1.25%, 2.50% and 5.0%; for Growth of test organism (Negative/Growth): DMSO solvent, SDA, trials TR1-TR3
Method: (§1) The anti-dermatophyte efficacy testing for greater than 99% pure form of 1,7-Bis(4-hydroxy-3-methoxyphenyl)-3,5-heptanedione (coded TP) in comparison to the corresponding 95% pure form (coded SW) was done by the agar dilution method. The medium used was Sabouraud's dextrose agar (SDA). Doubling concentration ranges from about 0.15% to about 5% of TP and […] was prepared in 5 ml Dimethylsulfoxide and added to 95 ml of SDA to form a total volume of 100 ml of the medium. The test organisms Trichophyton rubrum, Microsporum gypseum and Epidermophyton floccosum encoded as TR, MG and EF were inoculated in biosafety level 2 standards into the media comprising test compounds in the specified concentration ranges. Triplicate experiments were set up for each of the three fungi for each concentration of the test compounds to ensure reproducibility of results. DMSO and SDA controls were also included in triplicates for the test.
(§2) The test results are represented as Table I (FIG. 1, FIG. 2 and FIG. 3). The table may be read as follows. For example, TPTR1 represents growth of Trichophyton rubrum in greater than 99% pure form of 1,7-Bis (4-hydroxy-3-methoxyphenyl)-3,5-heptanedione in the first test. Similarly duplicate and triplicate testing are represented as TPTR2 and TPTR3.

Epidermophyton floccosum = experiment: as above; details: for Inhibition of growth at all tested concentrations: concentrations 0.15%, 0.31%, 0.625%, 1.25%, 2.50% and 5.0%; for Growth of test organism (Negative/Growth): DMSO solvent, SDA, trials EF1-EF3
Method: as §1, §2

Microsporum gypseum = experiment: as above; details: for Inhibition of growth at all tested concentrations: concentrations 0.15%, 0.31%, 0.625%, 1.25%, 2.50% and 5.0%; for Growth of test organism (Negative/Growth): DMSO solvent, SDA, trials MG1-MG3
Method: as §1, §2

[2] = test system: Candida albicans NCIM 3471 (yeast); experiment: Activity against Candida species: colony counts over 28 days
Malassezia furfur = experiment: Antifungal efficacy, agar dilution method (Sabourauds Dextrose Agar with an overlay of coconut oil); details: for Growth of test organism (Negative/Growth): DMSO solvent, trials MF1-MF3
[3] = listed as greater than 99% pure form of 1,7-Bis(4-hydroxy-3-methoxyphenyl)-3,5-heptanedion
[4] = test interval 7 days, listed as 1,7-bis(4-hydroxy-3-methoxyphenyl)-3,5-heptanedione (>99% purity)
[5] = test interval 14 days, listed as 1,7-bis(4-hydroxy-3-methoxyphenyl)-3,5-heptanedione (>99% purity)
[6] = test interval 21 days, listed as 1,7-bis(4-hydroxy-3-methoxyphenyl)-3,5-heptanedione (>99% purity)
[7] = test interval 28 days, listed as 1,7-bis(4-hydroxy-3-methoxyphenyl)-3,5-heptanedione (>99% purity)
[8] = test interval 28 days, listed as greater than 99% pure form of 1,7-bis(4-hydroxy-3-methoxyphenyl)-3,5-heptanedion
[9] = final concentration 0.15%, listed as 95% pure form of 1,7-Bis(4-hydroxy-3-methoxyphenyl)-3,5-heptanedione
[10] = test interval 7 days, listed as 1,7-bis(4-hydroxy-3-methoxyphenyl)-3,5-heptanedione (about 95% purity)
[11] = test interval 14 days, listed as 1,7-bis(4-hydroxy-3-methoxyphenyl)-3,5-heptanedione (about 95% purity)
[12] = test interval 21 days, listed as 1,7-bis(4-hydroxy-3-methoxyphenyl)-3,5-heptanedione (about 95% purity)
[13] = test interval 28 days, listed as 1,7-bis(4-hydroxy-3-methoxyphenyl)-3,5-heptanedione (about 95% purity)

In the case of `COc1cc(CCC(=O)CC(=O)CCc2ccc(O)c(OC)c2)ccc1O` [TP, 1,7-Bis(4-hydroxy-3-methoxyphenyl)-3,5-heptanedione], the “Day 0 count” value [1] is reported as 1 × 10^7 CFU/g, the “Day 7 count” value [1] is reported as <10 CFU/g and the “Day 14 count” value [1] is reported as <10 CFU/g. The “Day 28 Count” value [1] was <10 CFU/g, the “Inhibition of growth at all tested concentrations” value (“Inhibition of growth” below) (Trichophyton rubrum) was “inhibits the growth” and the “Inhibition of growth” value (Trichophyton rubrum; [3]) was “completely inhibiting the growth”. For the same compound, the “Growth of test organism (Negative/Growth)” value (“Growth … (Negative/Growth)” below) (Trichophyton rubrum; final concentration 0.15%) was “Negative”, the “Growth … (Negative/Growth)” value (Trichophyton rubrum; final concentration 0.31%) was “Negative” and the “Growth … (Negative/Growth)” value (Trichophyton rubrum; final concentration 0.625%) was “Negative”. For the same compound, the “Growth … (Negative/Growth)” value (Trichophyton rubrum; final concentration 1.25%) was “Negative”, the “Growth … (Negative/Growth)” value (Trichophyton rubrum; final concentration 2.5%) was “Negative” and the “Growth … (Negative/Growth)” value (Trichophyton rubrum; final concentration 5%) was “Negative”. For the same compound, the “Inhibition of growth” value (Epidermophyton floccosum) was “inhibits the growth”, the “Inhibition of growth” value (Epidermophyton floccosum; [3]) was “completely inhibiting the growth” and the “Growth … (Negative/Growth)” value (Epidermophyton floccosum; final concentration 0.15%) was “Negative”. For the same compound, the “Growth … (Negative/Growth)” value (Epidermophyton floccosum; final concentration 0.31%) was “Negative”, the “Growth … (Negative/Growth)” value (Epidermophyton floccosum; final concentration 0.625%) was “Negative” and the “Growth … (Negative/Growth)” value (Epidermophyton floccosum; final concentration 1.25%) was “Negative”. For the same compound, the “Growth … (Negative/Growth)” value (Epidermophyton floccosum; final concentration 2.5%) was “Negative”, the “Growth … (Negative/Growth)” value (Epidermophyton floccosum; final concentration 5%) was “Negative” and the “Inhibition of growth” value (Microsporum gypseum) was “inhibits the growth”. The “Inhibition of growth” value (Microsporum gypseum; [3]) was “completely inhibiting the growth”, the “Growth … (Negative/Growth)” value (Microsporum gypseum; final concentration 0.15%) was “Negative” and the “Growth … (Negative/Growth)” value (Microsporum gypseum; final concentration 0.31%) was “Negative”. The “Growth … (Negative/Growth)” value (Microsporum gypseum; final concentration 0.625%) was “Negative”, the “Growth … (Negative/Growth)” value (Microsporum gypseum; final concentration 1.25%) was “Negative” and the “Growth … (Negative/Growth)” value (Microsporum gypseum; final concentration 2.5%) was “Negative”. The “Growth … (Negative/Growth)” value (Microsporum gypseum; final concentration 5%) was “Negative”, the Concentration of organism ([2]; test interval 0 days, listed as 1,7-bis(4-hydroxy-3-methoxyphenyl)-3,5-heptanedione (>99% purity)) was 14.6 × 10^5 cfu/ml and the Concentration of organism [2, 4] was 72 × 10^5 cfu/ml. The “Log Reduction” value [2, 4] was 0.5, the “Percent Reduction” value [2, 4] was 50.6% and the Concentration of organism [2, 5] was 20 × 10^8 cfu/ml. For the same compound, the “Log Reduction” value [2, 5] was 2.8, the “Percent Reduction” value [2, 5] was 99.8% and the Concentration of organism [2, 6] was 75 × 10^2 cfu/ml. The “Log Reduction” value [2, 6] was 3.4, the “Percent Reduction” value [2, 6] was 99.94% and the Concentration of organism [2, 7] was <130 cfu/ml. The “Log Reduction” value [2, 7] was 5.3, the “Percent Reduction” value [2, 7] was 99.99% and the Concentration of organism [2, 8] was “less than 100 cfu/ml”. The “Percent Reduction” value [2, 8] was 99.99%, the “Activity against Malassezia furfur at all tested concentration, in contrast to the 95% pure form” value (Malassezia furfur; 0.15% to 5%) was “enhanced activity” and the “Growth … (Negative/Growth)” value (Malassezia furfur; final concentration 0.15%) was “Negative”. The “Growth … (Negative/Growth)” value (Malassezia furfur; final concentration 0.31%) was “Negative”, the “Growth … (Negative/Growth)” value (Malassezia furfur; final concentration 0.625%) was “Negative” and the “Growth … (Negative/Growth)” value (Malassezia furfur; final concentration 1.25%) was “Negative”. The “Growth … (Negative/Growth)” value (Malassezia furfur; final concentration 2.5%) was “Negative” and the “Growth … (Negative/Growth)” value (Malassezia furfur; final concentration 5%) was “Negative”.
In the case of `COc1cc(CCC(=O)CC(=O)CCc2ccc(O)c(OC)c2)ccc1O` [SW, 1,7-Bis(4-hydroxy-3-methoxyphenyl)-3,5-heptanedione], the “Growth … (Negative/Growth)” value (Trichophyton rubrum; final concentration 0.15%) is reported as “tolerated by the fungi; also recorded: Growth”, the “Growth … (Negative/Growth)” value (Trichophyton rubrum; [9]) is reported as “grow” and the “Growth … (Negative/Growth)” value (Trichophyton rubrum; final concentration 0.31%) is reported as “Negative”. The “Growth … (Negative/Growth)” value (Trichophyton rubrum; final concentration 0.625%) was “Negative”, the “Growth … (Negative/Growth)” value (Trichophyton rubrum; final concentration 1.25%) was “Negative” and the “Growth … (Negative/Growth)” value (Trichophyton rubrum; final concentration 2.5%) was “Negative”. The “Growth … (Negative/Growth)” value (Trichophyton rubrum; final concentration 5%) was “Negative”, the “Growth … (Negative/Growth)” value (Epidermophyton floccosum; final concentration 0.15%) was “able to grow; also recorded: Growth” and the “Growth … (Negative/Growth)” value (Epidermophyton floccosum; [9]) was “grow”. The “Growth … (Negative/Growth)” value (Epidermophyton floccosum; final concentration 0.31%) was “able to grow; also recorded: Growth”, the “Growth … (Negative/Growth)” value (Epidermophyton floccosum; final concentration 0.31%, listed as 95% pure form of 1,7-Bis(4-hydroxy-3-methoxyphenyl)-3,5-heptanedione) was “tolerant” and the “Growth … (Negative/Growth)” value (Epidermophyton floccosum; final concentration 0.625%) was “Negative”. For the same compound, the “Growth … (Negative/Growth)” value (Epidermophyton floccosum; final concentration 1.25%) was “Negative”, the “Growth … (Negative/Growth)” value (Epidermophyton floccosum; final concentration 2.5%) was “Negative” and the “Growth … (Negative/Growth)” value (Epidermophyton floccosum; final concentration 5%) was “Negative”. For the same compound, the “Growth … (Negative/Growth)” value (Microsporum gypseum; final concentration 0.15%) was “tolerated by the fungi; also recorded: Growth”, the “Growth … (Negative/Growth)” value (Microsporum gypseum; [9]) was “grow” and the “Growth … (Negative/Growth)” value (Microsporum gypseum; final concentration 0.31%) was “Negative”. For the same compound, the “Growth … (Negative/Growth)” value (Microsporum gypseum; final concentration 0.625%) was “Negative”, the “Growth … (Negative/Growth)” value (Microsporum gypseum; final concentration 1.25%) was “Negative” and the “Growth … (Negative/Growth)” value (Microsporum gypseum; final concentration 2.5%) was “Negative”. For the same compound, the “Growth … (Negative/Growth)” value (Microsporum gypseum; final concentration 5%) was “Negative”, the Concentration of organism ([2]; test interval 0 days, listed as 1,7-bis(4-hydroxy-3-methoxyphenyl)-3,5-heptanedione (about 95% purity)) was 25 × 10^5 cfu/ml and the Concentration of organism [2, 10] was 19.7 × 10^5 cfu/ml. For the same compound, the “Log Reduction” value [2, 10] was 0.2, the “Percent Reduction” value [2, 10] was 21.2% and the Concentration of organism [2, 11] was 16 × 10^4 cfu/ml. The “Log Reduction” value [2, 11] was 2.3, the “Percent Reduction” value [2, 11] was 99.3% and the Concentration of organism [2, 12] was 53 × 10^5 cfu/ml. For the same compound, the “Log Reduction” value [2, 12] was 0.7, the “Percent Reduction” value [2, 12] was 78.6% and the Concentration of organism [2, 13] was 31.5 × 10^5 cfu/ml. The “Log Reduction” value [2, 13] was 0.8, the “Percent Reduction” value [2, 13] was 87.4% and the “Concentration that inhibits the growth of the fungus” value (Malassezia furfur; agar dilution) was ≥ 1.25%. The “Growth … (Negative/Growth)” value (Malassezia furfur; final concentration 0.15%) was “Growth”, the “Growth … (Negative/Growth)” value (Malassezia furfur; final concentration 0.31%) was “Growth” and the “Growth … (Negative/Growth)” value (Malassezia furfur; final concentration 0.625%) was “Growth”. The “Growth … (Negative/Growth)” value (Malassezia furfur; final concentration 1.25%) was “Negative; also recorded: Growth”, the “Growth … (Negative/Growth)” value (Malassezia furfur; final concentration 2.5%) was “Negative” and the “Growth … (Negative/Growth)” value (Malassezia furfur; final concentration 5%) was “Negative”.
